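How tested: cells in 96-well plates exposed to compound for 48 hours at five concentrations. GI50 = concentration required for 50% inhibition of growth.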 Activity calls are given as the source filed them. Cut-off read from the data, not from the text of the source: active = GI50 up to about 1.1 µM and inactive = higher.
Columns and labels:
Experiment in all cases: growth of human tumour cells (NCI), 48 h
786-0 = test system: 786-0
A498 = test system: A498
A549 = test system: A549
ACHN = test system: ACHN
BT-549 = test system: BT-549
CAKI-1 = test system: CAKI-1
CCRF-CEM = test system: CCRF-CEM
COLO 205 = test system: COLO 205
DU-145 = test system: DU-145
EKVX = test system: EKVX
HCC 2998 = test system: HCC 2998
HCT-116 = test system: HCT-116
HCT-15 = test system: HCT-15
HL-60 = test system: HL-60
HOP-62 = test system: HOP-62
HOP-92 = test system: HOP-92
HT-29 = test system: HT-29
Hs-578T = test system: Hs-578T
IGROV-1 = test system: IGROV-1
K562 = test system: K562
KM12 = test system: KM12
LOX IMVI = test system: LOX IMVI
M14 = test system: M14
MCF7 = test system: MCF7
MDA-MB-231 = test system: MDA-MB-231
MDA-MB-435 = test system: MDA-MB-435
MDA-N = test system: MDA-N
MOLT-4 = test system: MOLT-4
Malme-3M = test system: Malme-3M
NCI-H23 = test system: NCI-H23
NCI-H460 = test system: NCI-H460
NCI-H522 = test system: NCI-H522
NCI/ADR-RES = test system: NCI/ADR-RES
OVCAR-3 = test system: OVCAR-3
OVCAR-5 = test system: OVCAR-5
OVCAR-8 = test system: OVCAR-8
PC-3 = test system: PC-3
RPMI-8226 = test system: RPMI-8226
RXF 393 = test system: RXF 393
SF-268 = test system: SF-268
SF-295 = test system: SF-295
SF-539 = test system: SF-539
SK-MEL-28 = test system: SK-MEL-28
SK-MEL-2 = test system: SK-MEL-2
SK-MEL-5 = test system: SK-MEL-5
SN12C = test system: SN12C
SNB-19 = test system: SNB-19
SNB-75 = test system: SNB-75
SR = test system: SR
SW-620 = test system: SW-620
T47D = test system: T47D
TK-10 = test system: TK-10
U-251 = test system: U-251
UACC-257 = test system: UACC-257
UACC-62 = test system: UACC-62
UO-31 = test system: UO-31
SK-OV-3 = test system: SK-OV-3
NCI-H226 = test system: NCI-H226
OVCAR-4 = test system: OVCAR-4

SMILES: CC(C)(C)OC(=O)NC(Cc1ccc(OCc2ccccc2)cn1)C(=O)N1CCCC1 (centres undefined)
- GI50 (786-0): > 100 µM (inactive)
- GI50 (A498): > 100 µM (inactive)
- GI50 (A549): > 100 µM (inactive)
- GI50 (ACHN): > 100 µM (inactive)
- GI50 (BT-549): 31.1 µM (inactive)
- GI50 (CAKI-1): > 100 µM (inactive)
- GI50 (CCRF-CEM): 44.8 µM (inactive)
- GI50 (COLO 205): 68.9 µM (inactive)
- GI50 (DU-145): > 100 µM (inactive)
- GI50 (EKVX): 66.8 µM (inactive)
- GI50 (HCC 2998): > 100 µM (inactive)
- GI50 (HCT-116): 79.3 µM (inactive)
- GI50 (HCT-15): 74.3 µM
- GI50 (HL-60): 49.1 µM (inactive)
- GI50 (HOP-62): 23.5 µM (inactive)
- GI50 (HOP-92): > 100 µM (inactive)
- GI50 (HT-29): 54 µM (inactive)
- GI50 (Hs-578T): > 100 µM (inactive)
- GI50 (IGROV-1): > 100 µM (inactive)
- GI50 (K562): 67.8 µM (inactive)
- GI50 (KM12): 65.5 µM (inactive)
- GI50 (LOX IMVI): 72.1 µM (inactive)
- GI50 (M14): > 100 µM (inactive)
- GI50 (MCF7): 62.1 µM (inactive)
- GI50 (MDA-MB-231): 80 µM (inactive)
- GI50 (MDA-MB-435): 53.7 µM (inactive)
- GI50 (MDA-N): 55.8 µM (inactive)
- GI50 (MOLT-4): 34.8 µM (inactive)
- GI50 (Malme-3M): 30.3 µM (inactive)
- GI50 (NCI-H23): 45.7 µM (inactive)
- GI50 (NCI-H460): 78 µM (inactive)
- GI50 (NCI-H522): 35.3 µM (inactive)
- GI50 (NCI/ADR-RES): 25.1 µM (inactive)
- GI50 (OVCAR-3): 25.6 µM (inactive)
- GI50 (OVCAR-5): > 100 µM (inactive)
- GI50 (OVCAR-8): 40.6 µM (inactive)
- GI50 (PC-3): 33.4 µM (inactive)
- GI50 (RPMI-8226): 54.6 µM (inactive)
- GI50 (RXF 393): 69.3 µM (inactive)
- GI50 (SF-268): 89.1 µM (inactive)
- GI50 (SF-295): 30.1 µM (inactive)
- GI50 (SF-539): 23.2 µM (inactive)
- GI50 (SK-MEL-28): > 100 µM (inactive)
- GI50 (SK-MEL-2): > 100 µM (inactive)
- GI50 (SK-MEL-5): 19.3 µM (inactive)
- GI50 (SN12C): 77.6 µM (inactive)
- GI50 (SNB-19): > 100 µM (inactive)
- GI50 (SNB-75): 77.3 µM (inactive)
- GI50 (SR): > 100 µM (inactive)
- GI50 (SW-620): > 100 µM (inactive)
- GI50 (T47D): 27.4 µM (inactive)
- GI50 (TK-10): > 100 µM (inactive)
- GI50 (U-251): 86.7 µM (inactive)
- GI50 (UACC-257): 37.4 µM (inactive)
- GI50 (UACC-62): 54.3 µM (inactive)
- GI50 (UO-31): > 100 µM (inactive)

SMILES: Cc1cn2c(/C=C3/C(=O)Nc4ccccc43)c(-c3ccccc3)nc2s1
- GI50 (786-0): 17.2 µM (inactive)
- GI50 (A498): 72.3 µM (inactive)
- GI50 (A549): > 100 µM (inactive)
- GI50 (ACHN): 32.2 µM (inactive)
- GI50 (BT-549): 32.9 µM (inactive)
- GI50 (CAKI-1): > 100 µM (inactive)
- GI50 (CCRF-CEM): > 100 µM (inactive)
- GI50 (COLO 205): > 100 µM (inactive)
- GI50 (DU-145): 78.3 µM (inactive)
- GI50 (EKVX): 71.3 µM (inactive)
- GI50 (HCC 2998): > 100 µM (inactive)
- GI50 (HCT-116): 62.4 µM (inactive)
- GI50 (HCT-15): > 100 µM
- GI50 (HL-60): > 100 µM (inactive)
- GI50 (HOP-62): 38.5 µM (inactive)
- GI50 (HOP-92): 36.5 µM (inactive)
- GI50 (HT-29): > 100 µM (inactive)
- GI50 (Hs-578T): 27.7 µM (inactive)
- GI50 (IGROV-1): 40.5 µM (inactive)
- GI50 (K562): > 100 µM (inactive)
- GI50 (KM12): > 100 µM (inactive)
- GI50 (LOX IMVI): 91 µM (inactive)
- GI50 (M14): > 100 µM (inactive)
- GI50 (MCF7): 29.4 µM (inactive)
- GI50 (MDA-MB-231): 18.7 µM (inactive)
- GI50 (MDA-MB-435): > 100 µM (inactive)
- GI50 (MDA-N): > 100 µM (inactive)
- GI50 (MOLT-4): > 100 µM (inactive)
- GI50 (Malme-3M): > 100 µM (inactive)
- GI50 (NCI-H23): 48.4 µM (inactive)
- GI50 (NCI-H460): 78.2 µM (inactive)
- GI50 (NCI-H522): > 100 µM (inactive)
- GI50 (NCI/ADR-RES): 37.5 µM (inactive)
- GI50 (OVCAR-3): 85.3 µM (inactive)
- GI50 (OVCAR-5): > 100 µM (inactive)
- GI50 (OVCAR-8): 54.3 µM (inactive)
- GI50 (PC-3): 57.3 µM (inactive)
- GI50 (RPMI-8226): > 100 µM (inactive)
- GI50 (RXF 393): 27 µM (inactive)
- GI50 (SF-268): 31 µM (inactive)
- GI50 (SF-295): 37.5 µM (inactive)
- GI50 (SF-539): 19.2 µM (inactive)
- GI50 (SK-MEL-28): > 100 µM (inactive)
- GI50 (SK-MEL-2): 28.1 µM (inactive)
- GI50 (SK-MEL-5): 71.1 µM (inactive)
- GI50 (SK-OV-3): 30.1 µM (inactive)
- GI50 (SN12C): 93.1 µM (inactive)
- GI50 (SNB-19): 24.3 µM (inactive)
- GI50 (SNB-75): 25.8 µM (inactive)
- GI50 (SR): > 100 µM (inactive)
- GI50 (SW-620): 64.4 µM (inactive)
- GI50 (T47D): 38.9 µM (inactive)
- GI50 (TK-10): 22.4 µM (inactive)
- GI50 (U-251): 29.3 µM (inactive)
- GI50 (UACC-257): > 100 µM (inactive)
- GI50 (UACC-62): 67.6 µM (inactive)
- GI50 (UO-31): 23.2 µM (inactive)

SMILES: CN1C(=O)CN(NC(=O)C2=C(O)c3ccc(Br)cc3S(=O)(=O)N2)C1=S
- GI50 (786-0): > 100 µM (inactive)
- GI50 (A498): > 100 µM (inactive)
- GI50 (A549): > 100 µM (inactive)
- GI50 (ACHN): > 100 µM (inactive)
- GI50 (BT-549): > 100 µM (inactive)
- GI50 (CAKI-1): > 100 µM (inactive)
- GI50 (CCRF-CEM): 19.2 µM (inactive)
- GI50 (COLO 205): > 100 µM (inactive)
- GI50 (DU-145): > 100 µM (inactive)
- GI50 (EKVX): > 100 µM (inactive)
- GI50 (HCC 2998): > 100 µM (inactive)
- GI50 (HCT-116): > 100 µM (inactive)
- GI50 (HCT-15): > 100 µM
- GI50 (HL-60): 33 µM (inactive)
- GI50 (HOP-62): > 100 µM (inactive)
- GI50 (HOP-92): > 100 µM (inactive)
- GI50 (HT-29): > 100 µM (inactive)
- GI50 (Hs-578T): > 100 µM (inactive)
- GI50 (IGROV-1): > 100 µM (inactive)
- GI50 (K562): 49.2 µM (inactive)
- GI50 (KM12): 78.3 µM (inactive)
- GI50 (LOX IMVI): > 100 µM (inactive)
- GI50 (M14): > 100 µM (inactive)
- GI50 (MCF7): 53.7 µM (inactive)
- GI50 (MDA-MB-231): > 100 µM (inactive)
- GI50 (MDA-MB-435): > 100 µM (inactive)
- GI50 (MDA-N): 45.3 µM (inactive)
- GI50 (MOLT-4): > 100 µM (inactive)
- GI50 (Malme-3M): 33.4 µM (inactive)
- GI50 (NCI-H226): > 100 µM (inactive)
- GI50 (NCI-H23): > 100 µM (inactive)
- GI50 (NCI-H460): > 100 µM (inactive)
- GI50 (NCI-H522): 75.7 µM (inactive)
- GI50 (NCI/ADR-RES): > 100 µM (inactive)
- GI50 (OVCAR-4): > 100 µM (inactive)
- GI50 (OVCAR-5): > 100 µM (inactive)
- GI50 (OVCAR-8): > 100 µM (inactive)
- GI50 (PC-3): > 100 µM (inactive)
- GI50 (RPMI-8226): > 100 µM (inactive)
- GI50 (RXF 393): > 100 µM (inactive)
- GI50 (SF-268): > 100 µM (inactive)
- GI50 (SF-295): > 100 µM (inactive)
- GI50 (SK-MEL-28): > 100 µM (inactive)
- GI50 (SK-MEL-2): > 100 µM (inactive)
- GI50 (SK-MEL-5): > 100 µM (inactive)
- GI50 (SK-OV-3): > 100 µM (inactive)
- GI50 (SN12C): > 100 µM (inactive)
- GI50 (SNB-19): > 100 µM (inactive)
- GI50 (SR): 46.1 µM (inactive)
- GI50 (SW-620): > 100 µM (inactive)
- GI50 (T47D): > 100 µM (inactive)
- GI50 (TK-10): > 100 µM (inactive)
- GI50 (U-251): > 100 µM (inactive)
- GI50 (UACC-257): > 100 µM (inactive)
- GI50 (UACC-62): > 100 µM (inactive)
- GI50 (UO-31): > 100 µM (inactive)
